Results taken from ChEMBL document CHEMBL5634148, “Synthesis and evaluation of novel pleuromutilin derivatives targeting the 50S ribosomal subunit for antibacterial ability” (Eur J Med Chem, 2023).
≈ marks a conversion by molar mass, not a printed value. Calls of active or inactive are those of the source. The rule behind the calls is not given here.

How the values were obtained:
[1] = Cytotoxicity against human HepG2 cells assessed as cell viability at 200 uM incubated for 6 hrs by CCK8 assay relative to control; assay type: toxicity, cell-based; details: read-out: Activity
Staphylococcus aureus [2] = assay: Antibacterial activity against Staphylococcus aureus assessed as reduction in bacterial count at 1 to 6 times MIC incubated for 24 hrs by time kill assay; assay type: functional
[3] = Toxicity in Wistar rat assessed as food intake at 2000 mg/kg, po measured for 14 days; assay type: organism-based; details: in vivo, 336 h, time 14 day
Enterococcus faecalis = assay: Antibacterial activity against Enterococcus faecalis assessed as bacterial growth inhibition incubated for 18 to 24 hrs by NCCLS based assay; assay type: functional; details: time 18-24 hrs
[4] = Toxicity in Wistar rat assessed as body weight loss at 2000 mg/kg, po measured for 14 days; assay type: organism-based; details: in vivo, 336 h, time 14 day
[5] = Toxicity in Wistar rat assessed as absolute kidneys weight at 2000 mg/kg, po measured after 14 days (reference value: 1.77 +/- 0.16 g); assay type: organism-based; details: in vivo, 336 h, time 14 day
[6] = Toxicity in Wistar rat assessed as relative uterus weight at 2000 mg/kg, po measured after 14 days (reference value: 0.45 +/- 0.03 %); assay type: organism-based; details: in vivo, 336 h, time 14 day
[7] = Toxicity in Wistar rat assessed as absolute uterus weight at 2000 mg/kg, po measured after 14 days (reference value: 0.87 +/- 0.06 g); assay type: organism-based; details: in vivo, 336 h, time 14 day
Staphylococcus aureus [8] = assay: Antibacterial activity against methicillin-resistant Staphylococcus aureus infected in neutropenic Balb/c mouse model assessed as reduction in bacterial load in lungs at 40 mg/kg, iv measured after 5 days; assay type: functional; details: time 5 day
[9] = Toxicity in po-dosed Wistar rat measured for 14 days by H and E staining based analysis; details: in vivo, time 14 day
[10] = Toxicity in Wistar rat assessed as congestion in hepatic central vein at 2000 mg/kg, po measured for 14 days by H and E staining based analysis; assay type: organism-based; details: in vivo, 336 h, time 14 day
[11] = Toxicity in neutropenic Balb/c mouse model infected with methicillin-resistant Staphylococcus aureus assessed as animal survival at 40 mg/kg, iv measured for 7 days; assay type: organism-based; details: in vivo, 168 h, time 7 day
[12] = Toxicity in Wistar rat assessed as absolute liver weight at 2000 mg/kg, po measured after 14 days (reference value: 10.02 +/- 0.44 g); assay type: organism-based; details: in vivo, 336 h, time 14 day
Staphylococcus aureus [13] = assay: Antibacterial activity against Staphylococcus aureus ATCC 25923 assessed as bacterial growth inhibition incubated for 18 to 24 hrs by NCCLS based assay; assay type: functional; details: time 18-24 hrs
[14] = Toxicity in Wistar rat assessed as physical activity at 2000 mg/kg, po measured for 48 hrs; assay type: organism-based; details: in vivo
[15] = Toxicity in Wistar rat assessed as necrosis of alveolar epithelial cells in lungs at 2000 mg/kg, po measured for 14 days by H and E staining based analysis; assay type: organism-based; details: in vivo, 336 h, time 14 day
Staphylococcus aureus [16] = assay: Bactericidal activity against methicillin-resistant Staphylococcus aureus ATCC 29213 incubated for 24 hrs by time kill assay; assay type: functional, organism-based
[17] = Toxicity in Wistar rat assessed as physical activity at 2000 mg/kg, po measured for 24 hrs; assay type: organism-based; details: in vivo
[18] = Cytotoxicity against HEK293T cells assessed as cell viability incubated for 6 hrs by CCK8 assay; assay type: toxicity, cell-based, HEK-293T; details: human
Staphylococcus aureus [19] = assay: Antibacterial activity against methicillin-resistant Staphylococcus aureus infected in neutropenic Balb/c mouse model assessed as thickening of alveolar septa in lungs at 40 mg/kg, iv measured after 5 days; assay type: functional, organism-based; details: time 5.0 day
[20] = Toxicity in Wistar rat assessed as trembling at 2000 mg/kg, po measured for 48 hrs; assay type: organism-based; details: in vivo
[21] = Cytotoxicity against human HepG2 cells assessed as cell viability incubated for 6 hrs by CCK8 assay; assay type: toxicity, cell-based
[22] = Toxicity in Wistar rat assessed as absolute heart weight at 2000 mg/kg, po measured after 14 days (reference value: 0.86 +/- 0.09 g); assay type: organism-based; details: in vivo, 336 h, time 14 day
Staphylococcus aureus [23] = assay: Bactericidal activity against Staphylococcus aureus incubated for 24 hrs by time kill assay; assay type: functional, organism-based
Staphylococcus aureus [24] = assay: Antibacterial activity against methicillin-resistant Staphylococcus aureus ATCC 29213 assessed as reduction in bacterial count at 6 times MIC incubated for 24 hrs by time kill assay; assay type: functional
[25] = Cytotoxicity against HEK293T cells assessed as cell viability at 200 uM incubated for 6 hrs by CCK8 assay relative to control; assay type: toxicity, cell-based, HEK-293T; details: human, read-out: Activity
[26] = Toxicity in Wistar rat assessed as relative lungs weight at 2000 mg/kg, po measured after 14 days (reference value: 0.62 +/- 0.18 %); assay type: organism-based; details: in vivo, 336 h, time 14 day
Staphylococcus aureus [27] = assay: Antibacterial activity against methicillin-resistant Staphylococcus aureus infected in neutropenic Balb/c mouse model assessed as reduction in bacterial load in liver at 40 mg/kg, iv measured after 5 days; assay type: functional, organism-based; details: time 5.0 day
[28] = Toxicity in Wistar rat assessed as piloerection at 2000 mg/kg, po measured for 48 hrs; assay type: organism-based; details: in vivo
[29] = Toxicity in Wistar rat assessed as vascular congestion in lungs at 2000 mg/kg, po measured for 14 days by H and E staining based analysis; assay type: organism-based; details: in vivo, 336 h, time 14 day
[30] = Toxicity in Wistar rat assessed as piloerection at 2000 mg/kg, po measured for 24 hrs; assay type: organism-based; details: in vivo
[31] = Toxicity in Wistar rat assessed as relative heart weight at 2000 mg/kg, po measured after 14 days (reference value: 0.36 +/- 0.03 %); assay type: organism-based; details: in vivo, 336 h, time 14 day
[32] = Toxicity in Wistar rat assessed as trembling at 2000 mg/kg, po measured for 24 hrs; assay type: organism-based; details: in vivo
[33] = Toxicity in Wistar rat assessed as capillary congestion in lungs at 2000 mg/kg, po measured for 14 days by H and E staining based analysis; assay type: organism-based; details: in vivo, 336 h, time 14 day
Staphylococcus aureus [34] = assay: Drug sensitivity against Staphylococcus aureus at 1/4 times MIC measured after 4 passages; assay type: functional, organism-based
Staphylococcus aureus [35] = assay: Drug resistance against Staphylococcus aureus assessed as fold increase in MIC measured after 21 passages relative to control; assay type: functional
Staphylococcus aureus [36] = assay: Antibacterial activity against methicillin-resistant Staphylococcus aureus infected in neutropenic Balb/c mouse model assessed as reduction in inflammatory cell infiltration in lungs at 40 mg/kg, iv measured after 5 days; assay type: functional, organism-based; details: time 5.0 day
[37] = Toxicity in Wistar rat assessed as fatality at 2000 mg/kg, po measured for 7 days; assay type: organism-based; details: in vivo, 168 h, time 7 day
Staphylococcus aureus [38] = assay: Antibacterial activity against methicillin-resistant Staphylococcus aureus infected in neutropenic Balb/c mouse model assessed as thickening of alveolar walls in lungs at 40 mg/kg, iv measured after 5 days; assay type: functional, organism-based; details: time 5.0 day
Staphylococcus aureus [39] = assay: Antibacterial activity against methicillin-resistant Staphylococcus aureus BNCC 337371 assessed as bacterial growth inhibition incubated for 18 to 24 hrs by NCCLS based assay; assay type: functional; details: time 18-24 hrs
[40] = Toxicity in Wistar rat assessed as relative liver weight at 2000 mg/kg, po measured after 14 days (reference value: 4.37 +/- 0.18 %); assay type: organism-based; details: in vivo, 336 h, time 14 day
Escherichia coli = assay: Antibacterial activity against Escherichia coli CICC 10389 assessed as bacterial growth inhibition incubated for 18 to 24 hrs by NCCLS based assay; assay type: functional; details: time 18-24 hrs
[41] = Toxicity in Wistar rat assessed as hepatocyte fatty degeneration at 2000 mg/kg, po measured for 14 days by H and E staining based analysis; assay type: organism-based; details: hepatocytes, 336 h, time 14 day

**Q.** For `C=C[C@]1(C)C[C@@H](OC(=O)CSc2ncnc(N(C)C)n2)[C@]2(C)[C@H](C)CC[C@]3(CCC(=O)[C@H]32)[C@@H](C)[C@@H]1O`, which viability at 6 h, 200 µM [1] is on record?
**A.** The viability at 6 h, 200 µM was 60.2%.

**Q.** What about the “log(activity)” value (Staphylococcus aureus [2]) of the same molecule?
**A.** Its value is 2.5.

**Q.** What about the Activity [3] of the same molecule?
**A.** Its Activity is “Toxic”.

**Q.** What about the MIC (Enterococcus faecalis) of the same molecule?
**A.** The MIC was 32 µg/mL (≈ 61.9 µM).

**Q.** And the Activity [4]?
**A.** The Activity was “Toxic”.

**Q.** And the Activity [5]?
**A.** Its Activity is 1.85 g.

**Q.** And the Activity [6]?
**A.** Its Activity is 0.29%.

**Q.** What about the Activity [7] of the same molecule?
**A.** Its Activity is 0.68 g.

**Q.** And the Activity (Staphylococcus aureus [8])?
**A.** Its Activity is 2.52 log10CFU/ml.

**Q.** And the LD50 at 336 h [9]?
**A.** The LD50 at 336 h was greater than 2000 mg/kg.

**Q.** And the Activity [10]?
**A.** The Activity was “Toxic”.

**Q.** What about the Activity [11] of the same molecule?
**A.** The Activity was 70%.

**Q.** What about the Activity [12] of the same molecule?
**A.** The Activity was 9.09 g.

**Q.** And the MIC (Staphylococcus aureus [13])?
**A.** Its MIC is 0.031 µg/mL (≈ 0.06 µM).

**Q.** What about the Activity [14] of the same molecule?
**A.** The Activity was “Non-Toxic”.

**Q.** And the Activity [15]?
**A.** Its Activity is “Toxic”.

**Q.** What about the Activity (Staphylococcus aureus [16]) of the same molecule?
**A.** The Activity was “Dose-Dependent Effect”.

**Q.** What about the Activity [17] of the same molecule?
**A.** The Activity was “Toxic”.

**Q.** And the CC50 at 6 h [18]?
**A.** Its CC50 at 6 h is 50.1 µM.

**Q.** And the Activity (Staphylococcus aureus [19])?
**A.** Its Activity is “Active”.

**Q.** And the Activity [20]?
**A.** Its Activity is “Non-Toxic”.

**Q.** And the CC50 at 6 h [21]?
**A.** Its CC50 at 6 h is 84.6 µM.

**Q.** What about the Activity [22] of the same molecule?
**A.** Its Activity is 0.75 g.

**Q.** What about the Activity (Staphylococcus aureus [23]) of the same molecule?
**A.** Its Activity is “Dose-Dependent Effect”.

**Q.** What about the “log(activity)” value (Staphylococcus aureus [24]) of the same molecule?
**A.** The value was 1.72.

**Q.** What about the viability at 6 h, 200 µM [25] of the same molecule?
**A.** The viability at 6 h, 200 µM was 66.9%.

**Q.** And the Activity [26]?
**A.** The Activity was 0.53%.

**Q.** And the Activity (Staphylococcus aureus [27])?
**A.** Its Activity is “Active”.

**Q.** What about the Activity [28] of the same molecule?
**A.** Its Activity is “Non-Toxic”.

**Q.** What about the Activity [29] of the same molecule?
**A.** Its Activity is “Toxic”.

**Q.** And the Activity [30]?
**A.** Its Activity is “Toxic”.

**Q.** And the Activity [31]?
**A.** Its Activity is 0.34%.

**Q.** And the Activity [32]?
**A.** Its Activity is “Toxic”.

**Q.** What about the Activity [33] of the same molecule?
**A.** The Activity was “Toxic”.

**Q.** What about the Activity (Staphylococcus aureus [34]) of the same molecule?
**A.** The Activity was “Active”.

**Q.** And the “fold change (FC)” value (Staphylococcus aureus [35])?
**A.** The value was 16.

**Q.** And the Activity (Staphylococcus aureus [36])?
**A.** The Activity was “Active”.

**Q.** What about the Activity [37] of the same molecule?
**A.** The Activity was “Non-Toxic”.

**Q.** What about the Activity (Staphylococcus aureus [38]) of the same molecule?
**A.** The Activity was “Active”.

**Q.** And the MIC (Staphylococcus aureus [39])?
**A.** Its MIC is 0.031 µg/mL (≈ 0.06 µM).

**Q.** What about the Activity [40] of the same molecule?
**A.** The Activity was 3.99%.

**Q.** And the MIC (Escherichia coli)?
**A.** The MIC was no less than 64 µg/mL.

**Q.** What about the Activity [41] of the same molecule?
**A.** The Activity was “Toxic”.
